The values below are quoted from earlier work in patent US20130109728A1, “BIOCIDE COMPOSITION” (TITAN CHEMICALS LIMITED, priority 2011, published 2013).

Assay in series [1]: not given
This is another data set of the same source.

For `Cn1sccc1=O` [MIT, 2-methylisothiazolin-3-one], the “freezing point of solutions in water” value (solutions of MIT in water) was “about 0 °C”.

As to `C[N+](C)(C)C.O=c1[nH]sc2ccccc12` [tetramethylammonium BIT, tetramethylammonium 1,2-benzisothiazolin-3-one], the “minimum freezing point of water solution” value (59 wt % tetramethylammonium BIT (40 wt % calculated as BIT), after storage for 24 hours and seeding with solid tetramethylammonium BIT, reported in WO 02 14 293) was 3 °C.

In the case of `O=c1[nH]sc2ccccc12` [BIT, 1,2-benzisothiazolin-3-one], in series [1], the water solubility result was “not very water soluble”.
